Laboratory results reported in publication PMC11009276, “Design, synthesis, biological assessment and molecular modeling studies of novel imidazothiazole-thiazolidinone hybrids as potential anticancer and anti-inflammatory agents” (Scientific Reports, 2024).

Assays:
[1] = tested on: HEK293 human embryonic kidney cell line; assay: MTT cytotoxicity assay, normal cell line HEK293; format: cell-based; conditions: HEK293, MTT, 72 h, normal cell line, read-out: IC50 (Mean ± SD) HEK293
Protocol: All the synthesized imidazothiazole derivatives linked with thiazolidinone moiety (4a-g and 5a-d, Fig. 4) were evaluated for their in- vitro anticancer activities against three selected human cancer cell lines namely non-small lung (A549), breast (MCF7) and colorectal (HCT116) and one normal human embryonic kidney cell line (HEK293) using the 3‐(4,5‐Dimethylthiazol‐2‐yl)-2,5‐Diphenyltetrazolium Bromide (MTT) assay method. […]. […].
Cytotoxicity study of the newly synthesized derivatives 4a-g and 5a-d was performed by MTT colorimetric assay method. […] Compounds were tested against selected cancer cell lines namely A549 (Lung), MCF-7(Breast) HCT116 (Colon), normal human embryonic kidney cell line (HEK293) and procured from National Centre for Cell Science Complex (NCCS) Pune University, India. Into a 96 well plate, cells were seeded into each well (3 × 10^3 cells/ per well), the plate were incubated for 24 h, after that the culture medium was discarded and replaced with fresh medium along with our newly synthesized test compounds in different concentration (10, 20, 40 and 80 µM) followed by incubation for 72 h. Further, the media of each well of the plates were aspirated with the addition of 100 µL MTT solution followed by incubation for the next 5 h at 37 °C. Finally, each well is treated with DMSO (100 µL) and swirled to dissolve the dark crystals of formazan. ELISA reader was used to measure the absorbance at 570 nm. The experiment was repeated three times; Graph pad prism and excel are used to calculate the IC50 values.

A549 cells = assay: AO/EB dual staining apoptosis assay; format: cell-based, human; conditions: vs control
Protocol: An early and late apoptotic along with necrotic cells were also observed in active compounds (4a-c) treated A549 cells (Fig. 9b).
A549 cell lines were cultured in six-well plates at 4 × 10^4 cells/well and then these cells were treated with 1.56 and 12.5 μg mL^−1 of […] for 48 h respectively. Further, Cells were harvested and stained with AO-EtBr dye mix (1:1 v/v from 100 μg mL^−1 in PBS) and studied using a fluorescent microscope.

[2] = Acute oral toxicity study; conditions: Wistar, rat, in vivo, 500 mg/kg
Protocol: Doxorubicin is used as standard drug […].
Animals (Wistar rats) procured were divided into three groups randomly, with six rats in each group. […] Group III is taken as control; all the animals were treated with 0.5 ml of sunflower oil per rat. All the animals were under observation, and after 24 h, mortality of treated animals was recorded. […] All the experiments performed were carried out with the approval of the IAEC, Jamia Hamdard, New Delhi.

gastric mucosa of rats = assay: Ulcerogenic activity; format: in vivo, rat; conditions: oral 0.0942 mmol/kg
Protocol: The Compounds (4a-d, 5a-b) which were found potent as anti-inflammatory agents were further screened for their ulcerogenic risk. The compounds and the standard drug were tested at an oral dose of 0.0942 mmol/kg.
Animals were divided into different groups consisting of 6 rats per group. […] The control group received 0.5% of the carboxymethylcellulose (CMC) solution. […] 24 h before the test compounds were administered. After receiving the medication, the rats were given regular food for 17 h and then sacrificed. The stomach was taken out and opened along its greater curvature before being gently cleansed by dipping it in normal saline and then washing it with distilled water. The mucosal injury/damage was examined thoroughly using a magnifying glass. The mucosal injury in each stomach was scored using the following score system: 0.5: Redness; 1.0: Spot Ulcers; 1.5: Hemorrhagic Streaks; 2.0: Ulcers > 3 but 5, 3.0: Ulcers > 5. The severity index (SI) of stomach mucosal injury was calculated as the mean score of each treated group minus the mean score of the control group.

Compound | IC50 [1] [µM] | Apoptotic cells (AO/EB dual staining) (A549 cells) | LD50 at 14 days [2] [mg/kg] | Mean ulcer severity index ± SEM (gastric mucosa of rats) | melting point [°C]
CC1SC(c2c(-c3ccccc3)nc3sccn23)N(c2ccc(Br)cc2)C1=O (stereo not drawn) [Compound 4c, 3-(4-Bromophenyl)-5-methyl-2-(6-phenylimidazo[2,1-b]thiazol-5-yl) thiazolidin-4-one] | 96.4 ± 1.79 | number of apoptotic cells enhanced | > 500 | 0.500 ± 0.182 | –
CC1SC(c2c(-c3ccccc3)nc3sccn23)N(c2ccc(Cl)cc2)C1=O (stereo not drawn) [Compound 4b, 3-(4-Chlorophenyl)-5-methyl-2-(6-phenylimidazo[2,1-b]thiazol-5-yl) thiazolidin-4-one] | 101 ± 3.41 | number of apoptotic cells enhanced | > 500 | 0.416 ± 0.153 | –
CC1SC(c2c(-c3ccccc3)nc3sccn23)N(c2ccc(F)cc2)C1=O (stereo not drawn) [Compound 4a, 3-(4-Fluorophenyl)-5-methyl-2-(6-phenylimidazo[2,1-b]thiazol-5-yl) thiazolidin-4-one] | 147 ± 4.3 | number of apoptotic cells enhanced | – | 1.167 ± 0.210 | 165 to 167
